PMC5685509 (Journal of agricultural and food chemistry, 2017)
Structures can show the parent of a compound that is named as a salt.

Columns and labels:
Hepa1c1c7 cells = experiment: cytotoxicity in Hepa1c1c7 cells; type: cell-based, murine; conditions: Mus musculus, Hepa-1c1c7, read-out: quinone reductase (QR) induction IC50
[1] = in vitro hydroxyl radical-scavenging activity bioassay; type: biochemical
quinone reductase = experiment: in vitro quinone reductase; type: cell-based, murine; conditions: for CI, chemoprevention index (= IC50/CD): Hepa1c1c7 cells

## O=C(O)c1cc(O)c(O)c(O)c1 [Compound 10, gallic acid]
Hepa1c1c7 cells
  IC50: 55.3 ± 7.8 µM

## O=c1c(O[C@@H]2O[C@@H](CO)[C@H](O)[C@H]2O)c(-c2ccc(O)c(O)c2)oc2cc(O)cc(O)c12 [Compound 8, quercetin 3-O-α-L-arabinofuranoside]
Hepa1c1c7 cells
  IC50: > 100 µM

## CC(=O)OCc1ccc(C=O)o1 [Compound 15, acetyloxymethylfurfural]
[1]
  hydroxyl radical-scavenging activity (in words): showed activity in neither of these two assays
Quinone reductase
  quinone reductase-inducing activity (in words): showed activity in neither of these two assays

## O=c1c(O[C@@H]2OC[C@@H](O)[C@H](O)[C@H]2O)c(-c2ccc(O)c(O)c2)oc2cc(O)cc(O)c12 [Compound 9, quercetin 3-O-β-D-xylopyranoside]
Hepa1c1c7 cells
  IC50: > 100 µM

## C[S@@+]([O-])CCCCN=C=S [L-sulforaphane, reference compound]
Quinone reductase
  CI, chemoprevention index (= IC50/CD): 21.7 ± 2.8
Hepa1c1c7 cells
  IC50: 16.7 ± 1.9 µM

## O=C(O)c1ccc(O)c(O)c1 [Compound 12, protocatechuic acid]
Quinone reductase
  quinone reductase-inducing activity (in words): exhibited quinone reductase-inducing activity
  CI, chemoprevention index (= IC50/CD): >24.4
Hepa1c1c7 cells
  IC50: > 100 µM

## COC(=O)CC(O)(CC(=O)OC)C(=O)O [Compound 16, 1,5-dimethyl citrate]
[1]
  hydroxyl radical-scavenging activity (in words): showed activity in neither of these two assays
Quinone reductase
  quinone reductase-inducing activity (in words): showed activity in neither of these two assays

## O=Cc1ccc(CO)o1 [Compound 14, hydroxymethylfurfural]
Quinone reductase
  quinone reductase-inducing activity (in words): exhibited quinone reductase-inducing activity

## O=c1c(O[C@@H]2O[C@H](CO)[C@H](O)[C@H](O)[C@H]2O)c(-c2ccc(O)c(O)c2)oc2cc(O)cc(O)c12 [Compound 7, hyperoside]
Quinone reductase
  quinone reductase-inducing activity (in words): exhibited quinone reductase-inducing activity
  CI, chemoprevention index (= IC50/CD): >5.2
Hepa1c1c7 cells
  IC50: > 100 µM

## COC(=O)c1cc(O)c(O)c(O)c1 [Compound 11, gallic acid methyl ester]
Quinone reductase
  quinone reductase-inducing activity (in words): exhibited quinone reductase-inducing activity
  CI, chemoprevention index (= IC50/CD): 5.8 ± 0.82
Hepa1c1c7 cells
  IC50: 82.4 ± 11.9 µM
